Measurements reported in patent publication US20100311714A1, “1H-IMIDAZO[4,5-c]QUINOLINONE COMPOUNDS” (priority 2009, published 2010).
pIC50: −log10 of the molar value. Read-outs that look alike come from different tables or passages of the source.

Biological target: T1, PI3K beta (Homo sapiens, UniProt P42338)
T1 construct: for the full-length p110-b subunit are generated and fused by overlapping PCR; His tag (C); made in house; host or cells: baculovirus BV949; Tn5 (Trichoplusia ni) or TiniPro insect cells
Test: PI3K beta kinase assay (Kinase-Glo luminescence)
Assay type: biochemical
In short: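 Kinase-Glo luminescence read out ATP left after a 60-min room-temperature reaction, started with ATP (1 μM final) on 25 nM His-tagged p85 iSH2–p110β (BV949) plus 10 μg/mL PI substrate in pH 7.5 Tris buffer. Percent inhibition at eight concentrations was fitted to a four-parameter logistic model for IC50.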

T1 sequence (P42338 with tags, fused parts or gaps limits assumed): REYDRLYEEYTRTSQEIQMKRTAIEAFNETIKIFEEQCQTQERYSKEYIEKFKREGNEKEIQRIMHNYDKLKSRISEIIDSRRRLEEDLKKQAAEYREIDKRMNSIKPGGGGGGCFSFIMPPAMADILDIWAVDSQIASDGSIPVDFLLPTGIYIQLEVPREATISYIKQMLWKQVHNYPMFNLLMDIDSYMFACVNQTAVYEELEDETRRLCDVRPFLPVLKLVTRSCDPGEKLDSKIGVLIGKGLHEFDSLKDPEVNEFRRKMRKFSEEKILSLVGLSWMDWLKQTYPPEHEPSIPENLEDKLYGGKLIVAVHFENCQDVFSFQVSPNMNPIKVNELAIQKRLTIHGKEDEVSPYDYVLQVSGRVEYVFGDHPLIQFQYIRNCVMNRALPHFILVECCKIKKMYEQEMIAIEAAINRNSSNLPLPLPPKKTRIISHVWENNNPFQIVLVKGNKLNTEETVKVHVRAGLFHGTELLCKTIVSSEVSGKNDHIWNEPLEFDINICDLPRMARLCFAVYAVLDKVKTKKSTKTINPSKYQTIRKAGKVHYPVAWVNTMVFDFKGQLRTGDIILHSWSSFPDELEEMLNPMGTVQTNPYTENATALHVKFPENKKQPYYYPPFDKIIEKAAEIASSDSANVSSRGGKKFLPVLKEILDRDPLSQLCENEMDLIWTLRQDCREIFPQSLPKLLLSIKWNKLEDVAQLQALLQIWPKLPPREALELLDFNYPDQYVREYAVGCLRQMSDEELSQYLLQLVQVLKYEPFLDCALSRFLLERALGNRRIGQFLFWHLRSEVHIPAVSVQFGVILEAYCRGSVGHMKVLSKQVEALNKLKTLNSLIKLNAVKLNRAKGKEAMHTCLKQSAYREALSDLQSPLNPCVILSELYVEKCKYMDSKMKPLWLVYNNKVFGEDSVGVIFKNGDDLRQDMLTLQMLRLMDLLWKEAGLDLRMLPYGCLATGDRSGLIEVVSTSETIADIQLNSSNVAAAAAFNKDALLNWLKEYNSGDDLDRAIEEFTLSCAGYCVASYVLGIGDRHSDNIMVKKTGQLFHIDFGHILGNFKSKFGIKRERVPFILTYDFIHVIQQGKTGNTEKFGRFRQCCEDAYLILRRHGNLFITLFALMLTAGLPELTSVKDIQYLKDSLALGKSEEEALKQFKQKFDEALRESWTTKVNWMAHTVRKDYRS

SMILES	pIC50 (read-out: EPK_PI3Kbeta/IC50)	pIC50 (read-out: PI3Kbeta/IC50)
COc1cc(-c2ccc3ncc4c(c3c2)n(-c2ccc(F)nc2C)c(=O)n4C)cnc1CO [Example 7.10, 1-(6-Fluoro-2-methyl-pyridin-3-yl)-8-(6-hydroxymethyl-5-methoxy-pyridin-3-yl)-3-methyl-1,3-dihydro-imidazo[4,5-c]quinolin-2-one]	7.70	
COCc1ncc(-c2ccc3ncc4c(c3c2)n(-c2ccc(F)nc2C)c(=O)n4C)cc1OC [Example 7.7, 1-(6-Fluoro-2-methyl-pyridin-3-yl)-8-(5-methoxy-6-methoxymethyl-pyridin-3-yl)-3-methyl-1,3-dihydro-imidazo[4,5-c]quinolin-2-one]	6.44	
COc1cc(-c2ccc3ncc4c(c3c2)n(-c2ccc(N3CC(F)(F)C3)nc2C)c(=O)n4C)cnc1CO [Example 24.4, 1-[6-(3,3-Difluoro-azetidin-1-yl)-2-methyl-pyridin-3-yl]-8-(6-hydroxymethyl-5-methoxy-pyridin-3-yl)-3-methyl-1,3-dihydro-imidazo[4,5-c]quinolin-2-one]	5.64	
COCc1ncc(-c2ccc3ncc4c(c3c2)n(-c2cccnc2C)c(=O)n4C)cc1OC [Example 2.30, 8-(5-Methoxy-6-methoxymethyl-pyridin-3-yl)-3-methyl-1-(2-methyl-pyridin-3-yl)-1,3-dihydro-imidazo[4,5-c]quinolin-2-one]	6.40	
COc1ccc(-n2c(=O)n(C)c3cnc4ccc(-c5cncc(N6CCC6)c5)cc4c32)c(OC)n1 [Example 8.11, 8-(5-Azetidin-1-yl-pyridin-3-yl)-1-(2,6-dimethoxy-pyridin-3-yl)-3-methyl-1,3-dihydro-imidazo[4,5-c]quinolin-2-one]	6.14	
CNC(=O)c1ccc(-c2ccc3ncc4c(c3c2)n(-c2cccnc2C)c(=O)n4C)cc1 [Example 2.4, N-Methyl-4-[3-methyl-1-(2-methyl-pyridin-3-yl)-2-oxo-2,3-dihydro-1H-imidazo[4,5-c]quinolin-8-yl]-benzamide]		6.17
COc1ccc(-n2c(=O)n(C)c3cnc4ccc(-c5cnc(C(OC)OC)c(OC)c5)cc4c32)c(OC)n1 [Example 8.13, 8-(6-Dimethoxymethyl-5-methoxy-pyridin-3-yl)-1-(2,6-dimethoxy-pyridin-3-yl)-3-methyl-1,3-dihydro-imidazo[4,5-c]quinolin-2-one]	6.58	
Cc1ncccc1-n1c(=O)n(C)c2cnc3ccc(-c4cnc5[nH]ccc5c4)cc3c21 [Example 2.8, 3-Methyl-1-(2-methyl-pyridin-3-yl)-8-(1H-pyrrolo[2,3-b]pyridin-5-yl)-1,3-dihydro-imidazo[4,5-c]quinolin-2-one]		6.76
Cc1nc(F)ccc1-n1c(=O)n(C)c2cnc3ccc(-c4cncc(N5CCC5)c4)cc3c21 [Example 7.6, 8-(5-Azetidin-1-yl-pyridin-3-yl)-1-(6-fluoro-2-methyl-pyridin-3-yl)-3-methyl-1,3-dihydro-imidazo[4,5-c]quinolin-2-one]	6.02	
COc1ccc(-n2c(=O)n(C)c3cnc4ccc(-c5cnc(CO)c(OC)c5)cc4c32)c(OC)n1 [Example 8.14, 1-(2,6-Dimethoxy-pyridin-3-yl)-8-(6-hydroxymethyl-5-methoxy-pyridin-3-yl)-3-methyl-1,3-dihydro-imidazo[4,5-c]quinolin-2-one]	5.81	
Cn1c(=O)n(-c2cccnc2F)c2c3cc(-c4cnc5[nH]ccc5c4)ccc3ncc21 [Example 6.3, 1-(2-Fluoro-pyridin-3-yl)-3-methyl-8-(1H-pyrrolo[2,3-b]pyridin-5-yl)-1,3-dihydro-imidazo[4,5-c]quinolin-2-one]		6.95

The remaining lines, values ahead:

pIC50 (read-out: EPK_PI3Kbeta/IC50)	pIC50 (read-out: PI3Kbeta/IC50)	SMILES
7.22		Cc1nc(N2CC(O)C2)ccc1-n1c(=O)n(C)c2cnc3ccc(-c4cncc(C(C)(C)O)c4)cc3c21 [Example 29.1, 1-[6-(3-Hydroxy-azetidin-1-yl)-2-methyl-pyridin-3-yl]-8-[5-(1-hydroxy-1-methyl-ethyl)-pyridin-3-yl]-3-methyl-1,3-dihydro-imidazo[4,5-c]quinolin-2-one]
6.57		COc1cc(-c2ccc3ncc4c(c3c2)n(-c2ccc(N3CCCC3)nc2C)c(=O)n4C)cnc1CO [Example 25.4, 8-(6-Hydroxymethyl-5-methoxy-pyridin-3-yl)-3-methyl-1-(2-methyl-6-pyrrolidin-1-yl-pyridin-3-yl)-1,3-dihydro-imidazo[4,5-c]quinolin-2-one]
6.97		CNc1ncc(-c2ccc3ncc4c(c3c2)n(-c2ccc(N3CC[C@H](O)C3)nc2C)c(=O)n4C)cc1Cl [Example 32.4, 8-(5-Chloro-6-methylamino-pyridin-3-yl)-1-[6-((S)-3-hydroxy-pyrrolidin-1-yl)-2-methyl-pyridin-3-yl]-3-methyl-1,3-dihydro-imidazo[4,5-c]quinolin-2-one]
6.76		COc1cc(-c2ccc3ncc4c(c3c2)n(-c2ccc(N3CCC(OC)C3)nc2C)c(=O)n4C)cnc1CO (stereo not shown) [Example 28.3, 8-(6-Hydroxymethyl-5-methoxy-pyridin-3-yl)-1-[6-(3-methoxy-pyrrolidin-1-yl)-2-methyl-pyridin-3-yl]-3-methyl-1,3-dihydro-imidazo[4,5-c]quinolin-2-one]
5.96		CNc1ncc(-c2ccc3ncc4c(c3c2)n(-c2ccc(N3CC[C@@H](O)C3)nc2C)c(=O)n4C)cn1 [Example 34.1, 1-[6-((R)-3-Hydroxy-pyrrolidin-1-yl)-2-methyl-pyridin-3-yl]-3-methyl-8-(2-methylamino-pyrimidin-5-yl)-1,3-dihydro-imidazo[4,5-c]quinolin-2-one]
7.77		Cc1nc(N2CCC(O)C2)ccc1-n1c(=O)n(C)c2cnc3ccc(-c4cncc(C(C)(C)O)c4)cc3c21 (stereo not shown) [Example 27.5, 8-[5-(1-Hydroxy-1-methyl-ethyl)-pyridin-3-yl]-1-[6-(3-hydroxy-pyrrolidin-1-yl)-2-methyl-pyridin-3-yl]-3-methyl-1,3-dihydro-imidazo[4,5-c]quinolin-2-one]
7.92		CCNc1cc(-c2ccc3ncc4c(c3c2)n(-c2ccc(N3CCCC3)nc2C)c(=O)n4C)cnc1CO [Example 25.5, 8-(5-Ethylamino-6-hydroxymethyl-pyridin-3-yl)-3-methyl-1-(2-methyl-6-pyrrolidin-1-yl-pyridin-3-yl)-1,3-dihydro-imidazo[4,5-c]quinolin-2-one]
7.11		CCNc1cc(-c2ccc3ncc4c(c3c2)n(-c2ccc(N3CC(F)(F)C(F)(F)C3)nc2C)c(=O)n4C)cnc1CO [Example 35.2, 8-(5-Ethylamino-6-hydroxymethyl-pyridin-3-yl)-3-methyl-1-[2-methyl-6-(3,3,4,4-tetrafluoro-pyrrolidin-1-yl)-pyridin-3-yl]-1,3-dihydro-imidazo[4,5-c]quinolin-2-one]
6.70		COc1cc(-c2ccc3ncc4c(c3c2)n(-c2ccc(N3CC[C@H](O)C3)nc2C)c(=O)n4C)cnc1CO [Example 32.7, 8-(6-Hydroxymethyl-5-methoxy-pyridin-3-yl)-1-[6-((S)-3-hydroxy-pyrrolidin-1-yl)-2-methyl-pyridin-3-yl]-3-methyl-1,3-dihydro-imidazo[4,5-c]quinolin-2-one]
5.70		CCNc1cc(-c2ccc3ncc4c(c3c2)n(-c2ccc(N(C)CCO)nc2C)c(=O)n4C)cnc1CO [Example 26.3, 8-(5-Ethylamino-6-hydroxymethyl-pyridin-3-yl)-1-{6-[(2-hydroxy-ethyl)-methyl-amino]-2-methyl-pyridin-3-yl}-3-methyl-1,3-dihydro-imidazo[4,5-c]quinolin-2-one]
6.04		CCOc1ccc(-c2ccc3ncc4c(c3c2)n(-c2ccc(N3CCC(O)C3)nc2C)c(=O)n4C)cn1 (stereo not shown) [Example 27.4, 8-(6-Ethoxy-pyridin-3-yl)-1-[6-(3-hydroxy-pyrrolidin-1-yl)-2-methyl-pyridin-3-yl]-3-methyl-1,3-dihydro-imidazo[4,5-c]quinolin-2-one]
6.52		CNc1ncc(-c2ccc3ncc4c(c3c2)n(-c2ccc(N3CCC(OC)C3)nc2C)c(=O)n4C)cn1 (stereo not shown) [Example 28.2, 1-[6-(3-Methoxy-pyrrolidin-1-yl)-2-methyl-pyridin-3-yl]-3-methyl-8-(2-methylamino-pyrimidin-5-yl)-1,3-dihydro-imidazo[4,5-c]quinolin-2-one]
6.37		COc1cc(-c2ccc3ncc4c(c3c2)n(-c2ccc(N)nc2C)c(=O)n4C)cnc1CO [Example 30.1, 1-(6-Amino-2-methyl-pyridin-3-yl)-8-(6-hydroxymethyl-5-methoxy-pyridin-3-yl)-3-methyl-1,3-dihydro-imidazo[4,5-c]quinolin-2-one]
7.44		Cc1nc(N2CCC(O)C2)ccc1-n1c(=O)n(C)c2cnc3ccc(-c4cnc(N)c(C(F)(F)F)c4)cc3c21 (stereo not shown) [Example 27.3, 8-(6-Amino-5-trifluoromethyl-pyridin-3-yl)-1-[6-(3-hydroxy-pyrrolidin-1-yl)-2-methyl-pyridin-3-yl]-3-methyl-1,3-dihydro-imidazo[4,5-c]quinolin-2-one]
